Experimental data taken from patent US9452986B2, “6-heteroaryloxy- or 6-aryloxy-quinoline-2-carboxamides and method of use” (AbbVie Inc., priority 2014, dated 2016).
Where two headings read alike, the source gives them in different places.

Molecular target: recombinant human Nav1.7 (Homo sapiens (Human), UniProt Q15858)
Test: FRET-based membrane potential assay, recombinant human sodium channel Nav1.7
Type: cell-based
Settings: read-out: FRET-Membrane Potential Nav1.7 IC50
Procedure, shortened: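 Channel activation used veratridine at its EC80, set by a dilution curve each experiment, together with Leiurus scorpion venom, added 3 min after compound. Membrane-potential ratio signals from FLIPR Tetra in HEPES-buffered HBSS were fitted to a four-parameter Hill equation for percent inhibition and IC50.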

[1] = HEK293 cells stably expressing recombinant human Nav1.7, veratridine + scorpion venom depolarization

recombinant human Nav1.7, sequence (Q15858 whole entry): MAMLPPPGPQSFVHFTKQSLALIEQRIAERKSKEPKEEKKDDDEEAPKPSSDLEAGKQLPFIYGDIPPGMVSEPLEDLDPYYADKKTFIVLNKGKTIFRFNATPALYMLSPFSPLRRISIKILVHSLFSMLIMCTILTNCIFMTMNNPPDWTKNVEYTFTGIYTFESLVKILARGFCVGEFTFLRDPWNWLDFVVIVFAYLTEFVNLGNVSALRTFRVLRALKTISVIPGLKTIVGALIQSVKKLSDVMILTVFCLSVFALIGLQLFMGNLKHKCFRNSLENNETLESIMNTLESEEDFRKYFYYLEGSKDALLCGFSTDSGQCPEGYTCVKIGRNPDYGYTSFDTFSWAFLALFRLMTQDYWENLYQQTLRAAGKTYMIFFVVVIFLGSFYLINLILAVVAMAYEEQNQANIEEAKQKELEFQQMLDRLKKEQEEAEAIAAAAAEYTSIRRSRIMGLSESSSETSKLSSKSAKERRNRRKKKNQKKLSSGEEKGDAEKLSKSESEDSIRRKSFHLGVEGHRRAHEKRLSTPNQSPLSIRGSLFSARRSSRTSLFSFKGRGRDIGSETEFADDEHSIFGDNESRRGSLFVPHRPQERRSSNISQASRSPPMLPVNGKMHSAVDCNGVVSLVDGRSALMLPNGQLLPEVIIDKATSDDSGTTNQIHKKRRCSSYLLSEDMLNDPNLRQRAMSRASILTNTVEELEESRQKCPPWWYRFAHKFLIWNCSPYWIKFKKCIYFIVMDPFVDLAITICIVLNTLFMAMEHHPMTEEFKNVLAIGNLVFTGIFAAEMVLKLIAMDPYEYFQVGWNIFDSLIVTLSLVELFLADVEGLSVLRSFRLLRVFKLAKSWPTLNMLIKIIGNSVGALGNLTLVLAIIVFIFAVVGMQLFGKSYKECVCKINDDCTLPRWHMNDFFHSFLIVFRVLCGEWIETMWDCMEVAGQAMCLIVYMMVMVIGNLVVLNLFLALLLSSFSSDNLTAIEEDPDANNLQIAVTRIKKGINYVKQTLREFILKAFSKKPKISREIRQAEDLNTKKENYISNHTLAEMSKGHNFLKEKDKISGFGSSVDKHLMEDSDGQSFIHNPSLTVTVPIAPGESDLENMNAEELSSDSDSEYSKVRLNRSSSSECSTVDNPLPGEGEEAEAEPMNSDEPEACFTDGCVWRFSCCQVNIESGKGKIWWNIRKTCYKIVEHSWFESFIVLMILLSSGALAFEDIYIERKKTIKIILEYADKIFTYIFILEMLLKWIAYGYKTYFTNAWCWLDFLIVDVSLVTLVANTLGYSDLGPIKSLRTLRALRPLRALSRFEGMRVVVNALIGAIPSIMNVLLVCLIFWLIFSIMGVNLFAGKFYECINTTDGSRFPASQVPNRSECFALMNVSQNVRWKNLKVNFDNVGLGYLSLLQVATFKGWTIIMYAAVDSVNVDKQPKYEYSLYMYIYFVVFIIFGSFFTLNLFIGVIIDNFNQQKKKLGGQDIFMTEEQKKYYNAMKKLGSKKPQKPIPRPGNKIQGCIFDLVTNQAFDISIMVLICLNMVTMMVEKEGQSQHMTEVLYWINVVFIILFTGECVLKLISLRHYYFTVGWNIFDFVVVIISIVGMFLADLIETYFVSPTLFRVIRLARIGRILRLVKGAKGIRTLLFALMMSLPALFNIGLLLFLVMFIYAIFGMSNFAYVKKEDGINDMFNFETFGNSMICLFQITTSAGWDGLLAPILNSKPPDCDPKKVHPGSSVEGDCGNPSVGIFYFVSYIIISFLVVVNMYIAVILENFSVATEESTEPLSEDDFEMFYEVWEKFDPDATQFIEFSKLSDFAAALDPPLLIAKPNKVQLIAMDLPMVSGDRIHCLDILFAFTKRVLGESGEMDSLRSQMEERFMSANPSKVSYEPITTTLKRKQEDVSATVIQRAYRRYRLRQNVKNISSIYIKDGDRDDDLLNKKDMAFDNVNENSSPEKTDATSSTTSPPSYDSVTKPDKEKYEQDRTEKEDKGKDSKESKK

SMILES	IC50 [1]	IC50
CC(=O)Nc1nc(C)c(S(=O)(=O)N2CCN(C(=O)c3ccc4cc(Oc5ccc(C(F)(F)F)cn5)ccc4n3)CC2)s1 [Example 388, N-[4-methyl-5-({4-[(6-{[5-(trifluoromethyl)pyridin-2-yl]oxy}quinolin-2-yl)carbonyl]piperazin-1-yl}sulfonyl)-1,3-thiazol-2-yl]acetamide]	> 20000 nM	–
O=C(NCC1COC1)c1ccc2cc(Oc3ccc(C(F)(F)F)cn3)ccc2n1 [Example 482, N-(oxetan-3-ylmethyl)-6-{[5-(trifluoromethyl)pyridin-2-yl]oxy}quinoline-2-carboxamide]	–	569 nM
O=C(NCC1(O)CC1)c1ccc2cc(Oc3ccc(C(F)(F)F)cn3)ccc2n1 [Example 369, N-[(1-hydroxycyclopropyl)methyl]-6-{[5-(trifluoromethyl)pyridin-2-yl]oxy}quinoline-2-carboxamide]	15200 nM	–
O=C(NC1CC(N2CCOCC2)C1)c1ccc2cc(Oc3ccc(C(F)(F)F)cn3)ccc2n1 (stereo not shown) [Example 433, N-[3-(morpholin-4-yl)cyclobutyl]-6-{[5-(trifluoromethyl)pyridin-2-yl]oxy}quinoline-2-carboxamide]	442 nM	–
CN1CCN(C(=O)c2ccc3cc(Oc4ccccn4)ccc3n2)CC1 [Example 77, (4-methylpiperazin-1-yl)[6-(pyridin-2-yloxy)quinolin-2-yl]methanone]	> 20000 nM	–
O=C(c1ccc2cc(Oc3ccc(C(F)(F)F)cn3)ccc2n1)N1CCN(S(=O)(=O)CC2CCOC2)CC1 (stereo not shown) [Example 385, {4-[(tetrahydrofuran-3-ylmethyl)sulfonyl]piperazin-1-yl}(6-{[5-(trifluoromethyl)pyridin-2-yl]oxy}quinolin-2-yl)methanone]	2330 nM	–
O=C(c1ccc2cc(Oc3ccc(C(F)(F)F)cn3)ccc2n1)N1CCC(O)CC1 [Example 256, (4-hydroxypiperidin-1-yl)(6-{[5-(trifluoromethyl)pyridin-2-yl]oxy}quinolin-2-yl)methanone]	–	16400 nM
O=C(c1ccc2cc(Oc3ccc(C(F)(F)F)cn3)ccc2n1)N1CC(N2CC[C@H](F)C2)C1 [Example 586, {3-[(3S)-3-fluoropyrrolidin-1-yl]azetidin-1-yl}(6-{[5-(trifluoromethyl)pyridin-2-yl]oxy}quinolin-2-yl)methanone]	–	1800 nM
O=C(NCC(=O)N1CCOCC1)c1ccc2cc(Oc3ccc(C(F)(F)F)cn3)ccc2n1 [Example 443, N-[2-(morpholin-4-yl)-2-oxoethyl]-6-{[5-(trifluoromethyl)pyridin-2-yl]oxy}quinoline-2-carboxamide]	703 nM	–
N#Cc1ccc(Oc2ccc3nc(C(=O)NCc4ncco4)ccc3c2)cc1 [Example 144, 6-(4-cyanophenoxy)-N-(1,3-oxazol-2-ylmethyl)quinoline-2-carboxamide]	832 nM	–
O=C(NC1CC(F)C1)c1ccc2cc(Oc3ccc(C(F)F)cn3)ccc2n1 (stereo not shown) [Example 617, 6-{[5-(difluoromethyl)pyridin-2-yl]oxy}-N-(3-fluorocyclobutyl)quinoline-2-carboxamide]	2780 nM	–
O=C(NC1CCOCC1)c1ccc2cc(Oc3ccc(C(F)(F)F)cn3)ccc2n1 [Example 327, N-(tetrahydro-2H-pyran-4-yl)-6-{[5-(trifluoromethyl)pyridin-2-yl]oxy}quinoline-2-carboxamide]	557 nM	–
CO[C@H]1CN(C(=O)c2ccc3cc(Oc4ccc(C(F)(F)F)cn4)ccc3n2)C[C@H]1OC [Example 324, [cis-3,4-dimethoxypyrrolidin-1-yl](6-{[5-(trifluoromethyl)pyridin-2-yl]oxy}quinolin-2-yl)methanone]	5010 nM	–
O=C(c1ccc2cc(Oc3ccc(C(F)(F)F)cn3)ccc2n1)N1CCN(Cc2ccccn2)CC1 [Example 308, [4-(pyridin-2-ylmethyl)piperazin-1-yl](6-{[5-(trifluoromethyl)pyridin-2-yl]oxy}quinolin-2-yl)methanone]	3070 nM	–
O=C(NCCN1CCNCC1=O)c1ccc2cc(Oc3ccc(C(F)(F)F)cn3)ccc2n1 [Example 469, N-[2-(2-oxopiperazin-1-yl)ethyl]-6-{[5-(trifluoromethyl)pyridin-2-yl]oxy}quinoline-2-carboxamide]	1710 nM	–
O=C(c1ccc2cc(Oc3ccc(C(F)(F)F)cn3)ccc2n1)N1CC(F)C(F)C1 (stereo not shown) [Example 415, (3,4-difluoropyrrolidin-1-yl)(6-{[5-(trifluoromethyl)pyridin-2-yl]oxy}quinolin-2-yl)methanone]	1610 nM	–
O=C(c1ccc2cc(Oc3ccc(C(F)(F)F)cn3)ccc2n1)N1CCN(S(=O)(=O)C2CCOC2)CC1 (stereo not shown) [Example 381, [4-(tetrahydrofuran-3-ylsulfonyl)piperazin-1-yl](6-{[5-(trifluoromethyl)pyridin-2-yl]oxy}quinolin-2-yl)methanone]	3410 nM	–
O=C1CC(NC(=O)c2ccc3cc(Oc4ccc(C(F)(F)F)cn4)ccc3n2)C1 [Example 432, N-(3-oxocyclobutyl)-6-{[5-(trifluoromethyl)pyridin-2-yl]oxy}quinoline-2-carboxamide]	2870 nM	–
N#Cc1ccc(Oc2ccc3nc(C(=O)NC4CCN(Cc5ccccc5)C4)ccc3c2)cc1 (stereo not shown) [Example 109, N-(1-benzylpyrrolidin-3-yl)-6-(4-cyanophenoxy)quinoline-2-carboxamide]	660 nM	–

SMILES	IC50 [1]	IC50
O=C(NCCO)c1ccc2cc(Oc3ccc(C(F)(F)F)cn3)ccc2n1 [Example 326, N-(2-hydroxyethyl)-6-{[5-(trifluoromethyl)pyridin-2-yl]oxy}quinoline-2-carboxamide]	–	3150 nM
O=C(c1ccc2cc(Oc3ccc(C(F)(F)F)cn3)ccc2n1)N1CCN(C2CC2)CC1 [Example 261, (4-cyclopropylpiperazin-1-yl)(6-{[5-(trifluoromethyl)pyridin-2-yl]oxy}quinolin-2-yl)methanone]	6310 nM	–
O=C(c1ccc2cc(Oc3ncccn3)ccc2n1)N1CCNCC1 [Example 242, piperazin-1-yl[6-(pyrimidin-2-yloxy)quinolin-2-yl]methanone]	> 20000 nM	–
O=C(NN1CCOCC1)c1ccc2cc(Oc3ccc(C(F)(F)F)cn3)ccc2n1 [Example 281, N-(morpholin-4-yl)-6-{[5-(trifluoromethyl)pyridin-2-yl]oxy}quinoline-2-carboxamide]	1280 nM	–
CCCN(CCOC)C(=O)c1ccc2cc(Oc3ccc(C#N)cc3)ccc2n1 [Example 107, 6-(4-cyanophenoxy)-N-(2-methoxyethyl)-N-propylquinoline-2-carboxamide]	4120 nM	–
CC1(C)CN(CCNC(=O)c2ccc3cc(Oc4ccc(C(F)(F)F)cn4)ccc3n2)C1 [Example 364, N-[2-(3,3-dimethylazetidin-1-yl)ethyl]-6-{[5-(trifluoromethyl)pyridin-2-yl]oxy}quinoline-2-carboxamide]	370 nM	–
O=C(NCCNc1ccccn1)c1ccc2cc(Oc3ccc(C(F)(F)F)cn3)ccc2n1 [Example 422, N-[2-(pyridin-2-ylamino)ethyl]-6-{[5-(trifluoromethyl)pyridin-2-yl]oxy}quinoline-2-carboxamide]	617 nM	–
O=C(c1ccc2cc(Oc3ccc(C(F)(F)F)nc3)ccc2n1)N1CCN[C@@H](CO)C1 [Example 544, [(3R)-3-(hydroxymethyl)piperazin-1-yl](6-{[6-(trifluoromethyl)pyridin-3-yl]oxy}quinolin-2-yl)methanone]	3450 nM	–
N#Cc1ccc(Oc2ccc3nc(C(=O)NC4CCS(=O)(=O)C4)ccc3c2)nc1 (stereo not shown) [Example 158, 6-[(5-cyanopyridin-2-yl)oxy]-N-(1,1-dioxidotetrahydrothiophen-3-yl)quinoline-2-carboxamide]	> 20000 nM	–
CN1CC(NC(=O)c2ccc3cc(Oc4ccc(C(F)(F)F)cn4)ccc3n2)CC1=O (stereo not shown) [Example 448, N-(1-methyl-5-oxopyrrolidin-3-yl)-6-{[5-(trifluoromethyl)pyridin-2-yl]oxy}quinoline-2-carboxamide]	371 nM	–
O=C(c1ccc2cc(Oc3ccc(C(F)(F)F)cn3)ccc2n1)N1CCNC(C(F)F)C1 (stereo not shown) [Example 594, [3-(difluoromethyl)piperazin-1-yl](6-{[5-(trifluoromethyl)pyridin-2-yl]oxy}quinolin-2-yl)methanone]	–	7590 nM
CC(C)[C@H](CO)NC(=O)c1ccc2cc(Oc3ccc(C#N)cc3)ccc2n1 [Example 91, 6-(4-cyanophenoxy)-N-[(2R)-1-hydroxy-3-methylbutan-2-yl]quinoline-2-carboxamide]	3250 nM	–
O=C(NC1COC1)c1ccc2cc(Oc3ccc(C(F)(F)F)cn3)ccc2n1 [Example 399, N-(oxetan-3-yl)-6-{[5-(trifluoromethyl)pyridin-2-yl]oxy}quinoline-2-carboxamide]	375 nM	–
O=C1CCN(C(=O)c2ccc3cc(Oc4ccc(C(F)(F)F)cn4)ccc3n2)CC1 [Example 375, 1-[(6-{[5-(trifluoromethyl)pyridin-2-yl]oxy}quinolin-2-yl)carbonyl]piperidin-4-one]	13200 nM	–
O=C(NCC1CN(C(=O)c2ccc3cc(Oc4ccc(C(F)(F)F)cn4)ccc3n2)CC1F)OCc1ccccc1 (stereo not shown) [Example 492, benzyl ({4-fluoro-1-[(6-{[5-(trifluoromethyl)pyridin-2-yl]oxy}quinolin-2-yl)carbonyl]pyrrolidin-3-yl}methyl)carbamate]	858 nM	–
CO[C@@H]1CN(C(=O)c2ccc3cc(Oc4ccc(C(F)(F)F)cn4)ccc3n2)C[C@H]1O (relative stereo) [Example 305, [trans-3-hydroxy-4-methoxypyrrolidin-1-yl](6-{[5-(trifluoromethyl)pyridin-2-yl]oxy}quinolin-2-yl)methanone]	13600 nM	–
CN(C)C(=O)[C@H](Cc1ccccc1)NC(=O)c1ccc2cc(Oc3ccc(C(F)(F)F)cn3)ccc2n1 [Example 501, N-[(2S)-1-(dimethylamino)-1-oxo-3-phenylpropan-2-yl]-6-{[5-(trifluoromethyl)pyridin-2-yl]oxy}quinoline-2-carboxamide]	–	734 nM
CC1(O)CC(NC(=O)c2ccc3cc(Oc4ccc(C(F)(F)F)nc4)ccc3n2)C1 (stereo not shown) [Example 578, N-(3-hydroxy-3-methylcyclobutyl)-6-{[6-(trifluoromethyl)pyridin-3-yl]oxy}quinoline-2-carboxamide]	1070 nM	–
